The subject of the assay is Staphylococcus aureus. Kind of assay: Inhibition of Staphylococcus aureus caseinolytic protein protease using fluorogenic substrate assessed as residual activity at 10 uM after 15 mins.

From ChEMBL document CHEMBL3425403, “De novo design of caseinolytic protein proteases inhibitors based on pharmacophore and 2D molecular fingerprints” (Bioorg Med Chem Lett, 2015) come the findings set out here.

For `C=CCCCCCCC[C@H]1C(=O)O[C@@H]1CCc1cccnc1`, the Activity worked out at 0%. In the case of `CCCCCCCCCC[C@H]1C(=O)O[C@@H]1CCCCCS(=O)(=O)CCC[N+](C)(C)C` it was 9%; in that of `CCCCCCCCCC[C@@H]1C(=O)O[C@H]1CCS(=O)(=O)CCCN(C)C`, 1%. In the case of `C#CCCCOC(=O)NCCCCC`, the Activity amounted to 100%. Next, `C#CCCCOC(=O)NCCCCCCCC=C`: 101%.

As for `CCCCCCCCCCCC[C@H]1C(=O)O[C@@H]1CCc1ccccc1`, the Activity turned out to be 95%. In the case of `CCCCCCCCCC[C@H]1C(=O)O[C@@H]1CCCCCS(=O)(=O)CCCN(C)C` it was 10%; in that of `C=CCCCCCCCC[C@H]1OC(=O)[C@@H]1CCCCCCCCCNC(=O)OC(C)(C)C`, 95%; in that of `O=C1OC[C@@H]1CCc1ccccc1`, 108%.

On to `CCCCCCCCCC[C@H]1C(=O)O[C@@H]1CCCS(=O)(=O)CCC[N+](C)(C)C`, for which the Activity was found to be 7%. In the case of `CCCCCCCCCC[C@H]1C(=O)O[C@@H]1CCS(=O)(=O)CCCN(C)C`, the Activity stood at 37%. Next, `O=C1OC[C@H]1CCc1ccccc1`: 108%; `CCCCCCCCCC[C@H]1C(=O)O[C@@H]1CCCS(=O)(=O)CCCN(C)C`: 8%.

On to `CCCCCCCCCC[C@@H]1C(=O)O[C@H]1CCCS(=O)(=O)CCC[N+](C)(C)C`, for which the Activity came out at 0%.

With `CCCCCCCCCC[C@@H]1C(=O)O[C@H]1CCCCCS(=O)(=O)CCC[N+](C)(C)C`, the Activity was found to be 1%.

Consider `CCCCCCCCCC[C@@H]1C(=O)O[C@H]1CCCSCCCN(C)C`, for which the Activity is 40%. In the case of `CCCCCCCCCC[C@@H]1C(=O)O[C@H]1CCCCS(=O)(=O)CCCN(C)C` it was 0%; in that of `CCCCCCCCCC[C@@H]1C(=O)O[C@H]1CCCCCS(=O)(=O)CCCN(C)C`, 5%.

For `CCCCCCCCCC[C@H]1C(=O)O[C@@H]1CCCCS(=O)(=O)CCCN(C)C`, the Activity stood at 13%. Next, `C=CCCCCCCCCC(=O)OC(C)(C)C`: 103%; `C=CCCCCCCCCC(=O)OC`: 96%. Consider `C=CCCCCCCC[C@H]1C(=O)O[C@@H]1CCc1ccccc1`, for which the Activity stood at 70%.

On to `CCCCCCCCCC[C@H]1C(=O)O[C@@H]1CCSCCCN(C)C`, for which the Activity is 11%. In the case of `CCCCCCCCCC[C@@H]1C(=O)O[C@H]1CCCCSCCCN(C)C`, the Activity is 0%. Take `CCCCCCCCCC[C@@H]1C(=O)O[C@H]1CCCS(=O)(=O)CCCN(C)C`: the Activity was 0%. Next, `CCCCCCCCCC[C@@H]1C(=O)O[C@H]1CCSCCCN(C)C`: 1%; `CCCCCCCCCC[C@@H]1C(=O)O[C@H]1CCCCCSCCCN(C)C`: 1%; `C#CCCC[C@@H]1OC(=O)[C@H]1CCCCCCCCCCCC`: 95%. Next, `C=CCCCCCCC[C@H]1C(=O)O[C@@H]1CCCCCCCCCCCNC(=O)OC(C)(C)C`: 105%; `CCCCCCCCCC[C@@H]1C(=O)O[C@H]1CCCCS(=O)(=O)CCC[N+](C)(C)C`: 36%; `CCCCCCCCCC[C@H]1C(=O)O[C@@H]1CCCCS(=O)(=O)CCC[N+](C)(C)C`: 9%.

For the compound `C=CCCCCCCC[C@H]1C(=O)O[C@@H]1CCCCCNC(=O)c1ccc(N(C)C)cc1`, the Activity stood at 30%.
